Measured values as given in PubChem BioAssay (NCI).
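Briefly, cells in 96-well plates were exposed to five compound concentrations for 48 h, and endpoints were estimated by linear interpolation. GI50: concentration for 50% inhibition of growth. TGI denotes the concentration required for complete inhibition of growth.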

What was measured:
Test in all cases: NCI tumour cell line growth inhibition, 48 h; in the data active means GI50 below about 0.43 µM; inactive means the rest
786-0 renal = system: 786-0 renal
A498 renal = system: A498 renal
A549 NSCLC = system: A549 NSCLC
ACHN renal = system: ACHN renal
BT-549 breast = system: BT-549 breast
CAKI-1 renal = system: CAKI-1 renal
CCRF-CEM leukemia = system: CCRF-CEM leukemia
COLO 205 colon = system: COLO 205 colon
DU-145 prostate = system: DU-145 prostate
EKVX NSCLC = system: EKVX NSCLC
HCC-2998 colon = system: HCC-2998 colon
HCT-116 colon = system: HCT-116 colon
HCT-15 colon = system: HCT-15 colon
HL-60(TB) leukemia = system: HL-60(TB) leukemia
HOP-62 NSCLC = system: HOP-62 NSCLC
HOP-92 NSCLC = system: HOP-92 NSCLC
HS 578T breast = system: HS 578T breast
HT29 colon = system: HT29 colon
IGROV1 ovarian = system: IGROV1 ovarian
K-562 leukemia = system: K-562 leukemia
KM12 colon = system: KM12 colon
LOX IMVI melanoma = system: LOX IMVI melanoma
M14 melanoma = system: M14 melanoma
MALME-3M melanoma = system: MALME-3M melanoma
MCF7 breast = system: MCF7 breast
MDA-MB-231 breast = system: MDA-MB-231 breast
MDA-MB-435 = system: MDA-MB-435
MOLT-4 leukemia = system: MOLT-4 leukemia
NCI-H226 lung = system: NCI-H226 lung
NCI-H23 lung = system: NCI-H23 lung
NCI-H460 lung = system: NCI-H460 lung
NCI-H522 lung = system: NCI-H522 lung
NCI/ADR-RES ovarian = system: NCI/ADR-RES ovarian
OVCAR-3 ovarian = system: OVCAR-3 ovarian
OVCAR-4 ovarian = system: OVCAR-4 ovarian
OVCAR-5 ovarian = system: OVCAR-5 ovarian
OVCAR-8 ovarian = system: OVCAR-8 ovarian
PC-3 prostate = system: PC-3 prostate
RPMI-8226 leukemia = system: RPMI-8226 leukemia
RXF 393 renal = system: RXF 393 renal
SF-268 CNS = system: SF-268 CNS
SF-295 CNS = system: SF-295 CNS
SF-539 CNS = system: SF-539 CNS
SK-MEL-2 melanoma = system: SK-MEL-2 melanoma
SK-MEL-28 melanoma = system: SK-MEL-28 melanoma
SK-MEL-5 melanoma = system: SK-MEL-5 melanoma
SK-OV-3 ovarian = system: SK-OV-3 ovarian
SN12C renal = system: SN12C renal
SNB-19 CNS = system: SNB-19 CNS
SNB-75 CNS = system: SNB-75 CNS
SR leukemia = system: SR leukemia
SW-620 colon = system: SW-620 colon
T-47D breast = system: T-47D breast
TK-10 renal = system: TK-10 renal
U251 CNS = system: U251 CNS
UACC-257 melanoma = system: UACC-257 melanoma
UACC-62 melanoma = system: UACC-62 melanoma
UO-31 renal = system: UO-31 renal

CC(=O)ON(OCc1ccc2ccccc2c1)C(C)=O
inactive: GI50 (786-0 renal) > 100 µM | GI50 (A498 renal) > 100 µM | GI50 (A549 NSCLC) > 100 µM | GI50 (ACHN renal) > 100 µM | GI50 (BT-549 breast) > 100 µM | GI50 (CAKI-1 renal) > 100 µM | GI50 (CCRF-CEM leukemia) > 100 µM | GI50 (COLO 205 colon) > 100 µM | GI50 (DU-145 prostate) > 100 µM | GI50 (EKVX NSCLC) 32.3 µM | GI50 (HCC-2998 colon) > 100 µM | GI50 (HCT-116 colon) > 100 µM | GI50 (HCT-15 colon) > 100 µM | GI50 (HL-60(TB) leukemia) > 100 µM | GI50 (HOP-62 NSCLC) > 100 µM | GI50 (HOP-92 NSCLC) 34.8 µM | GI50 (HS 578T breast) 55.2 µM | GI50 (HT29 colon) > 100 µM | GI50 (IGROV1 ovarian) > 100 µM | GI50 (K-562 leukemia) > 100 µM | GI50 (KM12 colon) > 100 µM | GI50 (LOX IMVI melanoma) 85.4 µM | GI50 (M14 melanoma) > 100 µM | GI50 (MALME-3M melanoma) > 100 µM | GI50 (MCF7 breast) 96.1 µM | GI50 (MDA-MB-231 breast) > 100 µM | GI50 (MDA-MB-435) > 100 µM | GI50 (MOLT-4 leukemia) > 100 µM | GI50 (NCI-H226 lung) > 100 µM | GI50 (NCI-H23 lung) > 100 µM | GI50 (NCI-H460 lung) > 100 µM | GI50 (NCI-H522 lung) > 100 µM | GI50 (NCI/ADR-RES ovarian) > 100 µM | GI50 (OVCAR-3 ovarian) > 100 µM | GI50 (OVCAR-4 ovarian) > 100 µM | GI50 (OVCAR-5 ovarian) > 100 µM | GI50 (OVCAR-8 ovarian) > 100 µM | GI50 (PC-3 prostate) > 100 µM | GI50 (RPMI-8226 leukemia) > 100 µM | GI50 (RXF 393 renal) > 100 µM | GI50 (SF-268 CNS) > 100 µM | GI50 (SF-295 CNS) > 100 µM | GI50 (SF-539 CNS) > 100 µM | GI50 (SK-MEL-2 melanoma) > 100 µM | GI50 (SK-MEL-28 melanoma) > 100 µM | GI50 (SK-MEL-5 melanoma) 94.7 µM | GI50 (SK-OV-3 ovarian) > 100 µM | GI50 (SN12C renal) > 100 µM | GI50 (SNB-19 CNS) > 100 µM | GI50 (SNB-75 CNS) 96.6 µM | GI50 (SR leukemia) 86.5 µM | GI50 (SW-620 colon) > 100 µM | GI50 (T-47D breast) > 100 µM | GI50 (TK-10 renal) > 100 µM | GI50 (U251 CNS) > 100 µM | GI50 (UACC-257 melanoma) > 100 µM | GI50 (UACC-62 melanoma) > 100 µM | GI50 (UO-31 renal) 85 µM
> 100 µM: TGI (786-0 renal) | TGI (A498 renal) | TGI (A549 NSCLC) | TGI (ACHN renal) | TGI (BT-549 breast) | TGI (CAKI-1 renal) | TGI (CCRF-CEM leukemia) | TGI (COLO 205 colon) | TGI (DU-145 prostate) | TGI (EKVX NSCLC) | TGI (HCC-2998 colon) | TGI (HCT-116 colon) | TGI (HCT-15 colon) | TGI (HL-60(TB) leukemia) | TGI (HOP-62 NSCLC) | TGI (HOP-92 NSCLC) | TGI (HS 578T breast) | TGI (HT29 colon) | TGI (IGROV1 ovarian) | TGI (K-562 leukemia) | TGI (KM12 colon) | TGI (LOX IMVI melanoma) | TGI (M14 melanoma) | TGI (MALME-3M melanoma) | TGI (MCF7 breast) | TGI (MDA-MB-231 breast) | TGI (MDA-MB-435) | TGI (MOLT-4 leukemia) | TGI (NCI-H226 lung) | TGI (NCI-H23 lung) | TGI (NCI-H460 lung) | TGI (NCI-H522 lung) | TGI (NCI/ADR-RES ovarian) | TGI (OVCAR-3 ovarian) | TGI (OVCAR-4 ovarian) | TGI (OVCAR-5 ovarian) | TGI (OVCAR-8 ovarian) | TGI (PC-3 prostate) | TGI (RPMI-8226 leukemia) | TGI (RXF 393 renal) | TGI (SF-268 CNS) | TGI (SF-295 CNS) | TGI (SF-539 CNS) | TGI (SK-MEL-2 melanoma) | TGI (SK-MEL-28 melanoma) | TGI (SK-MEL-5 melanoma) | TGI (SK-OV-3 ovarian) | TGI (SN12C renal) | TGI (SNB-19 CNS) | TGI (SNB-75 CNS) | TGI (SR leukemia) | TGI (SW-620 colon) | TGI (T-47D breast) | TGI (TK-10 renal) | TGI (U251 CNS) | TGI (UACC-257 melanoma) | TGI (UACC-62 melanoma) | TGI (UO-31 renal)
